This experiment deals with HEK293. Kind of experiment: Agonist activity at human PPAR-beta expressed in HEK293 cells co-transfected with luciferase reporter plasmid assessed as receptor transactivation at 10 nM incubated for 18 hrs by luciferase reporter gene assay relative to control. The format is cell-based. As to conditions: filed as agonist. A general note: In a reporter assay the amount or activity of a reporter protein is the signal.

As for `Cc1cc(SCc2sc(-c3ccc(C(F)(F)F)c(F)c3)nc2C)ccc1OCC(=O)O`, the fold change (FC) came out at 18.3.

These data come from ChEMBL document CHEMBL5244280, “Evodiamine Lowers Blood Lipids by Up-Regulating the PPARγ/ABCG1 Pathway in High-Fat-Diet-Fed Mice” (J Nat Prod, 2021).
